The text below walks through data of patent US10441597B2, “Ciclesonide for the treatment of airway disease in horses” (Boehringer Ingelheim Vetmedica GmbH, priority 2012, dated 2019).

For data set [1] the following is noted: when taken orally; cited from earlier work.
The subject of data set [2] is RAO horses. Put plainly: Moldy hay challenge study in RAO horses: clinical score (breathing effort score, weighted clinical score). Format: in vivo, horse. Conditions: dexamethasone 0.066 mg/kg per os once daily. From the text:
(§1) The commercially available […]® is used in the study.

The test system of data set [3] is RAO horses. Put plainly: Moldy hay challenge study in RAO horses: lung function variables (transpulmonary pressure, lung resistance, lung elastance). The class given is in vivo, horse. Conditions: dexamethasone 0.066 mg/kg per os once daily, after 14 days.
Description: as §1

The test system of data set [4] is segmented neutrophils and lymphocytes. In words: Moldy hay challenge study in RAO horses: segmented neutrophil and lymphocyte counts. The class given is in vivo, horse. Conditions: for Lymphocytes count after administration / Segmented neutrophil count after administration: dexamethasone 0.066 mg/kg per os once daily. How it is done: as §1
The segmented neutrophil counts and the lymphocyte counts are determined in the studies above: ciclesonide treatment versus dexamethasone treatment.

In data set [5] the test system is cortisol levels. The conditions noted are these: horses; after aerosol administration; cited from earlier work.
Data set [6] deals with cortisol levels. The conditions noted are these: humans; after aerosol administration/inhalation; cited from earlier work.

Where two headings read alike, the source gives them in different places.

Turning to `C[C@@H]1C[C@H]2[C@@H]3CCC4=CC(=O)C=C[C@]4(C)[C@@]3(F)[C@@H](O)C[C@]2(C)[C@@]1(O)C(=O)CO` [dexamethasone], the “Potency relative to prednisone” value in data set [1] is given as 7 times. The “Potency relative to the naturally occurring hormone cortisol” value in data set [1] was 27 times. Besides, the Breathing effort score result in the data set with RAO horses [2] (1st ciclesonide study, any measured time point) is “no significant changes”. In the data set with RAO horses [2] (2nd ciclesonide study, after 14 days, p=0.0001 to p<0.0001), the “Weighted clinical score compared to pretreatment values” is “significantly reduced”. For the same molecule, the “Clinical score compared to pretreatment values” in the data set with RAO horses [2] (Budesonide study, after 7 and 14 days, p=0.002 to p<0.0001) is listed as “significantly reduced”. Also, the “All lung function variables compared to pretreatment values” with RAO horses [3] (1st ciclesonide study, p<0.0001) was “significantly reduced”; with RAO horses [3] (2nd ciclesonide study, p=0.0009 to p<0.0001), “significantly reduced”; in the data set with RAO horses [3] (Budesonide study, p≤0.0001) it was “significantly reduced”. Also, the “Lymphocytes count after administration” value in data set [4] (1st ciclesonide study) and in data set [4] (2nd ciclesonide study) was “decreased” each time. Besides, the “Segmented neutrophil count after administration” value in data set [4] (1st ciclesonide study) and in data set [4] (2nd ciclesonide study) was “increased” each time. Moreover, in data set [4] (after treatment with dexamethasone, 1st and 2nd ciclesonide studies (Table 2)), the Neutrophilia and lymphopenia entry is “commonly observed”.

Turning to `C[C@@H]1C[C@H]2[C@@H]3C[C@H](F)C4=CC(=O)C=C[C@]4(C)[C@@]3(F)[C@@H](O)C[C@]2(C)[C@@]1(O)C(=O)SCF` [fluticasone], the Measured cortisol levels result with cortisol levels [5] and with cortisol levels [6] was “significant suppression” in each case.
